Data: paper PMC2944077, “Placental Transfer of Conjugated Bisphenol A and Subsequent Reactivation in the Rat Fetus” (Environmental Health Perspectives, 2010)

What was measured:
[1] = Uterine perfusion of pregnant rats with glucuronide substrate; distribution in maternal-placental-fetal unit; type: in vivo, rat; settings: for Amount of substrate (glucuronide) detected in perfusate (maternal side): 2 μM substrate 20 min (120 nmol total) then 70 min without substrate
Description: Additional details of the surgical procedure are available in the Supplemental Material (doi:10.1289/ehp.0901575). In this perfusion system, the perfusate pumped into the abdominal aorta is circulated through one uterine artery– placenta–fetus–uterine vein unit and drips from the drain tube inserted in the caudal vein. After the perfusion, dams and fetuses were euthanized by incision of the caudal vena cava under anesthesia and tissues were collected.
We used modified Krebs-Ringer’s buffer (mKRB; 126 mM NaCl, 3 mM KCl, 1.2 mM KH2PO4, 1.3 mM MgSO4, 2.4 mM CaCl2, 10 mM glucose, 26 mM NaHCO3, 2.5% dextran from Leuconostoc mesenteroides, and 3% Dextran 70) as the perfusate. The perfusate was pumped at a constant rate of 3 mL/min. First, we perfused four animals in a preliminary group with 10 μM BPA-GA for 20 min to determine whether BPA-GA is transferred into the fetus across the placenta. In this group, we performed a preliminary perfusion with mKRB for 5 min to wash away blood, followed by 20 min inflow of mKRB containing 10 μM BPA-GA. After the perfusion, the fetus and amniotic fluid were collected.
To elucidate the kinetics of perfused BPA-GA, we used another group of four animals to compare the amount of BPA-GA in maternal veins with that in fetal tissue. After preliminary perfusion with mKRB for 5 min, pregnant rats were perfused with mKRB containing 2 μM BPA-GA for 20 min. Then, mKRB without BPA-GA was perfused for 70 min (a total of 90 min). From the beginning of the BPA-GA perfusion, the perfusate that drained from the caudal vena cava was collected from each animal at 5-min intervals for 90 min. At the end of perfusate collection, the fetus, amnion, amniotic fluid, uterus, and placenta were collected. We also performed a control study using 1-naphthol-glucuronide (1-NA-GA; Nacalai Tesque Inc., Kyoto, Japan) as the substrate. Four pregnant rats were used in each perfusion group. […]
Perfusates collected from the caudal vena cava were collected after uterine perfusion and prepared for HPLC and LC/TOF-MS analysis. Each perfusate sample was mixed with a 4-fold volume of acetonitrile and centrifuged at 13,000 rpm for 5 min at 4°C; each supernatant was then analyzed by HPLC.
To prepare tissues for HPLC and LC/TOF-MS analysis, we first added each sample to 0.3 mL methanol; the sample was homogenized and then sonicated for 5 min. The products were centrifuged at 13,000 rpm for 5 min at 4°C, and the supernatants were concentrated by solid-phase extraction using an Oasis HLB Plus cartridge (Waters Corp., Milford, MA, USA). The extracts were then analyzed by HPLC.
We used an HPLC system (Tosoh Corp., Tokyo, Japan) that consisted of a dual pump (DP-8020), a fluorescent photometer (FS-8020), and a column oven (CO-8020). Samples were separated at 40°C using a reverse-phase column (Unison UK-C18; Imtakt Corp., Kyoto, Japan) at a flow rate of 1.0 mL/min under a linear gradient of solution A (methanol/water = 24/76 vol/vol with 10 mM ammonium acetate) and solution B (methanol) for 20 min. BPA-GA was detected at excitation/emission of 275/308 nm and 1-NA-GA was detected at excitation/emission of 283/336 nm. The results were recorded using LC-8020 integration software (Tosoh Corp.); the elution peaks of BPA and BPA-GA were noted and the concentrations compared with the standards.
LC/TOF-MS was performed using the HPLC system described above and LCT premier XE (Waters Corp.). The flow rate of HPLC was 0.3 mL/min, and BPA-GA was monitored at m/z 403–404 by TOF-MS. In the present study, the limits of detection of BPA and BPA-GA in LC/TOF-MS were both 20 pmol/mL (data not shown).

fetal heart cells = test: Incubation of fetal primary cell cultures with BPA-GA (deconjugation); type: in vitro ADME, rat; settings: 25 μM BPA-GA, 37°C, 10-120 min, GD18.5
Method: (§1) Fetal liver and heart tissues, collected on GD18.5, were washed twice with cold phosphate-buffered saline (PBS). Tissues for two fetuses were combined in one tube and then minced in cold PBS and centrifuged for 5 min at 100 × g at 4°C. After removing the supernatant, the pellets were resuspended in 5 mL William’s medium (Sigma-Aldrich, Inc., St. Louis, MO, USA) containing collagenase (350 U; Wako Pure Chemical Industries, Ltd., Osaka, Japan) and DNase I (375 U; Roche Diagnostics, Basel, Switzerland) and incubated for 30 min at 37°C. After the incubation, samples were centrifuged for 5 min at 100 × g at 4°C, and the supernatants were removed. The remaining cells, which had been isolated from two fetuses, were resuspended in 200 μL William’s medium with or without 25 μM BPA-GA and incubated at 37°C for 10, 30, 60, or 120 min. At each time point, cells and medium were pooled and extracts were prepared for HPLC as described above, by adding the same volume of methanol. All experiments were repeated five times. Values express the mean ± SE.

fetal liver cells = test: as above; type: in vitro ADME, rat; settings: 25 μM BPA-GA, 37°C, 10-120 min, GD18.5
Method: as §1

[2] = test system: placental trophoblast primary cell culture; test: Deconjugation of BPA-GA in placental trophoblast primary cell culture; type: in vitro ADME, rat; settings: data not shown
Method: After co-incubation with BPA-GA, we detected deconjugated BPA in fetal liver and to a small degree in fetal heart (Figure 6A). We observed β-Gase expression in both tissues (Figure 6B). […] The difference in deconjugation rates among tissues in the present study may reflect uptake into cells via transporters rather than through β-Gase expression. Another possibility is that BPA-GA is deconjugated in the placenta and then resultant BPA is transferred into the fetus by passive diffusion. Therefore, we also examined deconjugation of BPA-GA in placental trophoblast primary cell culture. […] The possibility of transfer of placental deconjugated BPA could not be excluded completely in this experiment. Further work is required to examine the tissue-specific deconjugation of BPA-GA and the possibility of BPA transfer.

[3] = design: method as in Matthews et al. 2001; settings: ref Matthews et al. 2001; cited from earlier work
UGT [4] = test: UGT enzyme analysis using hepatic microsomes; type: in vitro ADME, rat
Description: We examined UGT enzymatic activity using hepatic microsomes. We prepared the microsomes from rat liver and performed UGT enzyme analysis as described previously by [Daidoji et al (2006)]. See the Supplemental Material (doi:10.1289/ehp.0901575) for details.
Figure 6 Metabolism of BPA-GA in the fetus. Abbreviations: H, fetal heart; L, fetal liver; ML, maternal liver; P, placenta. (A) Time course showing concentration of deconjugated BPA (mean ± SE) in the extract of cultured fetal liver and heart cells (see “Materials and Methods” for details; n = 5). (B) Expression of β-Gase in the fetal liver and heart on GD18.5 by RT-PCR. (C) Expression of UGT isoforms in ML, P, L, and […] determined by RT-PCR. […] Values shown are the concentration (mean ± SE) of glucuronide conjugates in microsome protein (nmol/μg) after 30-min reaction time (n = 5).

CD-1 mice = test system: CD-1 mice; design: method as in Timms et al. 2005; settings: 10 μg/kg BPA/day; ref Timms et al. 2005; cited from earlier work
[5] = design: method as in Krishnan et al. 1993; Nagel et al. 1997; settings: in vivo and in vitro; ref Krishnan et al. 1993; Nagel et al. 1997; cited from earlier work
UGT [6] = settings: GD19.0; ref Matsumoto et al. 2002; cited from earlier work
[7] = oral 10 mg/kg BPA to GD16.0 rat mothers; ref Domoradzki et al. (2003); cited from earlier work
[8] = 2 μM substrate 20 min then 70 min without substrate, GD18.5, mean ± SD, n = 4

SMILES	Amount of substrate (glucuronide) detected in perfusate (maternal side) ([1]; GD18.5, mean ± SD, n = 4) [nmol]	Share of the total amount of BPA-GA detected in the fetus ([1]; 2 μM BPA-GA 20 min, total perfusion 90 min)	BPA-GA in the collected perfusate after 70 min ([1]; 2 μM BPA-GA 20 min then perfusion without BPA-GA, n = 4)	Amount of deconjugated substrate (BPA or 1NA) detected in amniotic fluid [1, 8] [pmol]	Amount of deconjugated substrate (BPA or 1NA) detected in fetus [1, 8] [pmol]	Amount of substrate (glucuronide) detected in fetus [1, 8] [pmol]	Deconjugated BPA in the fetus and amniotic fluid after preliminary perfusion ([1]; 10 μM BPA-GA, 20-min inflow, HPLC)	BPA-GA in the fetus and amniotic fluid after preliminary perfusion ([1]; 10 μM BPA-GA, 20-min inflow, HPLC, confirmed by LC/TOF-MS)	Deconjugation of BPA-GA to BPA in fetal heart cells (fetal heart cells)	Deconjugation of BPA-GA to BPA in fetal liver cells (fetal liver cells)	Deconjugation of BPA-GA in trophoblast cells [2]	Biological activity of metabolite [3]	Fetal UGT activity toward BPA relative to nonpregnant adult rats (UGT [4]; late pregnancy, in theory, from 20% of maternal and 70% pregnant/nonpregnant) [%]	UGT activities in fetal liver microsomes compared with those in the mother (UGT [4]; liver microsomes, GD18.5)	Fetal UGT activity toward substrate relative to maternal microsomes (UGT [4]; liver microsomes, GD18.5, 30-min reaction)	Effect of maternal exposure on prostate and urethra in male fetuses (CD-1 mice)	Estrogenic activity [5]	UGT activity toward BPA in pregnant rats relative to nonpregnant adult rats (UGT [6])	Concentration of BPA-GA in the fetus compared with that in maternal plasma [7]
O=C(O)[C@H]1O[C@@H](Oc2cccc3ccccc23)[C@H](O)[C@@H](O)[C@@H]1O [1-NA-GA, 1-naphthol-glucuronide, reference compound]	111.77 ± 2.58	–	–	–	–	–	–	–	–	–	–	–	–	–	–	–	–	–	–
CC(C)(c1ccc(O)cc1)c1ccc(O[C@@H]2O[C@H](C(=O)O)[C@@H](O)[C@H](O)[C@H]2O)cc1 [BPA-GA, BPA-glucuronide]	113.10 ± 6.92	about 0.09%	barely detected	31.35 ± 4.52	6.45 ± 1.45	109.26 ± 36.75	detected	detected	to a much smaller degree	in a time-dependent manner	did not observe deconjugation	biologically inactive	–	–	–	–	–	–	–
CC(C)(c1ccc(O)cc1)c1ccc(O)cc1 [BPA, Bisphenol A]	–	–	–	–	–	–	–	–	–	–	–	–	< 15	quite low	about 20%	induces abnormal development of the prostate and urethra	weak estrogenic activity	about 70%	approximately 0.1%
